Assay results as given in PMC9953561, “Five Post-Translational Modification Residues of CmPT2 Play Key Roles in Yeast and Rice” (International Journal of Molecular Sciences, 2023).

System: CmPT2 (CmPht1;2)
Conditions: labelled compound; H+ co-transporter; whole yeast cells; pH of uptake assay not stated

Km: 65.7 µM
SMILES: O=P(O)(O)O [phosphate]
